Assay results from publication PMC10954593, “Gastrodinol derivatives and prenylated flavones from the flower branch of Gastrodia elata” (Natural Products and Bioprospecting, 2024).
Converted amounts (≈) assume the structure as drawn. Like-named read-outs stand apart in the source and are kept apart here.

Columns and labels:
MRSA = test: anti-MRSA activity (96-well culture plate, OD at 625 nm after 24 h); format: cell-based, methicillin-resistant Staphylococcus aureus; conditions: for MIC50 / MIC50 (50% minimum inhibitory concentration), anti-MRSA: 24 h; for MIC50: read-out: MIC50 (50% minimum inhibitory concentration), anti-MRSA; for inhibition at 100 µM: read-out: Inhibition rate (%) of MRSA; for anti-MRSA activity (in words): abstract statement
Description: Prepare samples with DMSO as a solvent into a solution with an initial concentration of 20 mM; Take a 96-well culture plate, dilute the sample to be measured, and add bacterial solution to each well, and the final concentration is 5 × 10^5 CFU/mL; Incubate at 37 °C for 24 h, and the microplate reader determines the OD value at 625 nm. The experiment also set up a media blank control, a bacterial control and a vancomycin-positive drug control.
MIC50 (50% minimum inhibitory concentration) is calculated according to the Reed & Muench method.

AChE = AChE (Homo sapiens, UniProt P22303); test: biochemical; format: biochemical; conditions: for acetylcholinesterase inhibitory activity (in words): abstract statement; for inhibition at 50 µM: concentration 50 μM, read-out: AChE inhibition rate, primary screening; for IC50: positive control tacrine, read-out: IC50 of AChE-inhibiting activity
Description: The reaction is carried out in a 96-well plate with plates plated by 200 μL/system with 3 replicates per sample; Detect the absorbance value of 405 nm every 30 s within 1 h after the addition of the color developer and substrate.

[1] = Staphylococcus aureus, MRSA, Reed & Muench method, 37 °C
[2] = Staphylococcus aureus, MRSA, concentration 100 μM, preliminary screen

AChE, sequence (P22303 32-614): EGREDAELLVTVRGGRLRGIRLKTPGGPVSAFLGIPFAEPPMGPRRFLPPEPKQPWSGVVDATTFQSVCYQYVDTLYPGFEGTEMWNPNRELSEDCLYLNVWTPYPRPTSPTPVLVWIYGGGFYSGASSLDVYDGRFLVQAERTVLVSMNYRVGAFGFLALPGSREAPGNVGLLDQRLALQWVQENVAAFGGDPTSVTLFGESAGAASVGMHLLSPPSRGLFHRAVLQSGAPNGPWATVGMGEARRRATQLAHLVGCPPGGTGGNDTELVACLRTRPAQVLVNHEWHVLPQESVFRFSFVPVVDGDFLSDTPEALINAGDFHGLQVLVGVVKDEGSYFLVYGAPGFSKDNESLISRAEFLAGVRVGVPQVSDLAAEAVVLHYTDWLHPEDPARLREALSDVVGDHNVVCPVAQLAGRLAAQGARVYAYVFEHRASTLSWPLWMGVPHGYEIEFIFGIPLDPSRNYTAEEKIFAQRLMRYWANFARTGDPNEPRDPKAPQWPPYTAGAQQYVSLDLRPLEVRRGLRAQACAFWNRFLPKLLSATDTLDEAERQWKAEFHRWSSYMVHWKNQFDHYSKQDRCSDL

Structure (SMILES)	MIC50 (MRSA; [1])	inhibition at 100 µM (MRSA; [2])	MIC50 (MRSA; Staphylococcus aureus, MRSA)	inhibition at 100 µM (MRSA; Staphylococcus aureus, MRSA)	MIC50 (50% minimum inhibitory concentration), anti-MRSA (MRSA; Reed & Muench method, 37 °C)	MIC50 (MRSA; Reed & Muench method, 37 °C)	anti-MRSA activity (in words) (MRSA)	acetylcholinesterase inhibitory activity (in words) (AChE)	inhibition at 50 µM (AChE)	IC50 (AChE)
CC1(C)C=Cc2c(cc(O)c3c(=O)c(CC(O)C(C)(C)O)c(-c4ccc(O)cc4O)oc23)O1 (stereo not drawn) [Compound 6, 3-(2,3-dihydroxy-3-methylbutyl)-2-(2,4-dihydroxyphenyl)-5-hydroxy-8,8-dimethyl-4H,8H-pyrano[2,3-f] chromen-4-one]	61.6 ± 1.56 µM (≈ 28 µg/mL)	> 80%								
COc1c(Cc2ccc(O)cc2)c(O)c2c3c(ccc2c1Cc1ccc(O)cc1)C(O)CCC3=O (stereo not drawn) [Compound 1, 1,5-dihydroxy-6,8-bis(4-hydroxybenzyl)-7-methoxy-2,3-dihydrophenanthren-4(1H)-one]	22.06 ± 0.026 µM (≈ 10.4 µg/mL)	> 80%								
CN[C@H](CC(C)C)C(=O)N[C@H]1C(=O)N[C@@H](CC(N)=O)C(=O)N[C@H]2C(=O)N[C@H]3C(=O)N[C@H](C(=O)N[C@H](C(=O)O)c4cc(O)cc(O)c4-c4cc3ccc4O)[C@H](O)c3ccc(c(Cl)c3)Oc3cc2cc(c3O[C@@H]2O[C@H](CO)[C@@H](O)[C@H](O)[C@H]2O[C@H]2C[C@](C)(N)[C@H](O)[C@H](C)O2)Oc2ccc(cc2Cl)[C@H]1O [Vancomycin, reference compound]			0.433 ± 0.002 µM (≈ 0.628 µg/mL)	98.86 ± 0.495%						
Cc1ccc2c(c1)-c1cc(C3CC(=O)c4c(O)cc(O)cc4O3)c(O)cc1OC2(C)C (stereo not drawn) [Compound 5, 5,7-dihydroxy-2-(3-hydroxy-6,6,9-trimethyl-6H-benzo[c]chromen-2-yl) chroman-4-one]	4.4 µM (≈ 1.84 µg/mL)	> 80%			4.46 ± 0.02 µM (≈ 1.87 µg/mL)	4.46 µM (≈ 1.87 µg/mL)	good activity			
CC(C)=CCc1c(O)cc(O)c2c(=O)c3c(oc12)-c1ccc(O)cc1OC3C=C(C)C (stereo not drawn) [Compound 11, cyclomulberrin]	1.91 µM (≈ 0.802 µg/mL)	> 80%			1.908 ± 0.014 µM (≈ 0.802 µg/mL)		good activity			
CC1=C[C@H]2c3c(O)cc(-c4cc5ccc(O)cc5o4)cc3O[C@@]3(c4ccc(O)cc4O)Oc4cc(O)ccc4[C@H](C1)[C@@H]23 [Compound 13, mulberrofuran G]	1.26 µM (≈ 0.711 µg/mL)	> 80%			1.264 ± 0.005 µM (≈ 0.711 µg/mL)		good activity	good acetylcholinesterase inhibitory activity	> 60%	1.06 ± 0.011 µM
CC(C)=CCc1c(-c2ccc(O)cc2O)oc2c(CC=C(C)C)c(O)cc(O)c2c1=O [Compound 12, kuwanon C]	1.91 µM (≈ 0.807 µg/mL)	> 80%			1.911 ± 0.018 µM (≈ 0.807 µg/mL)		good activity			
CC1=CC2c3c(cc(-c4cc5ccc(O)cc5o4)c(Cc4ccc(O)cc4)c3O)OC3(c4ccc(O)cc4O)Oc4cc(O)ccc4C(C1)C23 (stereo not drawn) [Compound 9, 8a-(2,4-dihydroxyphenyl)-6-(6-hydroxybenzofuran-2-yl)-5-(4-hydroxybenzyl)-2-methyl-1,3a1,8a,13b-tetrahydro-3aH-benzo [3, 4] isochromeno[1,8-bc] chromene-4,11-diol]		63.95 ± 0.124%						good acetylcholinesterase inhibitory activity	> 60%	0.488 ± 0.032 µM
COc1cc2ccc3c(c2c(O)c1Cc1ccc(O)cc1)C(=O)C(Cc1ccc(O)cc1)(Cc1ccc(O)cc1)C3=O [Compound 3, 9-hydroxy-2,2,8-tris(4-hydroxybenzyl)-7-methoxy-1H-cyclopenta[a]naphthalene-1,3(2H)-dione]		13.5 ± 2.48%							> 60%	15.7 ± 1.57 µM
COc1cc(O)c2c3c(ccc2c1Cc1ccc(O)cc1)C(=O)C(Cc1ccc(O)cc1)(Cc1ccc(O)cc1)C3=O [Compound 2, 9-hydroxy-2,2,6-tris(4-hydroxybenzyl)-7-methoxy-1H-cyclopenta[a]naphthalene-1,3(2H)-dione]		77.2 ± 1.61%							> 60%	24.7 ± 0.732 µM
